Key:
Format in all cases: in vivo, human
[1] = tested on: visceral pain; assay: Experimental visceral pain, mechanical stimulation of the oesophagus via balloon distension, in healthy volunteers
From the text: (§1) The experimental studies referred to below, are based on a comparison of different drugs at healthy volunteers by applying experimental pain, since clinical studies provide insufficient information, partly due to the great difference that exists between patients and partly due to the fact that most diseases produce many symptoms other than pain, which affects the assessment of pain-killing efficacy. Experimental pain can be administered under controlled conditions in healthy volunteers so that this bias can be avoided. However, several experimental stimuli are necessary to simulate the complex clinical situation. It is also necessary to use different opioids to obtain sufficient differentiated knowledge about deep pain on different pain mechanisms, and an assessment of the clinical action spectrum of opioids. For testing the efficacy of different opioids for treating visceral pain a standardized test battery of cutaneous, muscular and visceral stimuli was applied. Blood samples were taken for determination of the opioid concentration in plasma.
(§2) In recent years methods by which deep and visceral stimuli can be administered reproducibly have been developed. These methods allow activation of the pain system with different stimuli, with the possibility of activating various types of nerve pathways in the same experiment. […]

[2] = tested on: muscular pain; assay: Experimental muscular pain (pressure, electrical stimuli in muscle) in healthy volunteers; conditions: for analgesic effect in muscle versus placebo: oral solution, morphine 30 mg, oxycodone 15 mg, FIG. 1
From the text: as §1
In recent years methods by which deep and visceral stimuli can be administered reproducibly have been developed. These methods allow activation of the pain system with different stimuli, with the possibility of activating various types of nerve pathways in the same experiment. In the trial described herein the efficacy of different opioids on different types of stimuli of skin, muscles and bowel in healthy volunteers have been compared. Cutaneous and muscular pain was administered by pressure, current and temperature (skin only). The stimulation of the internal organs was also produced by pressure via a balloon located at the bottom of the oesophagus. The balloon can be distended and produce mechanical stimuli, which feel like mild pain/discomfort. In addition, cold and heat stimuli can be administered by passing water of differing temperature through the balloon. […]

[3] = tested on: visceral pain; assay: Experimental visceral pain, heat stimulation of the oesophagus via hot water into the balloon, in healthy volunteers
From the text: as §1, §2

[4] = tested on: cutaneous pain; assay: Experimental cutaneous pain (pressure, electrical, thermal stimuli on skin) in healthy volunteers
From the text: as §1, §2

[5] = oral oxycodone 15 mg vs morphine 30 mg and placebo, FIG. 2
[6] = oral, morphine 30 mg vs oxycodone 15 mg, all modalities tested

CN1CC[C@]23c4c5ccc(O)c4O[C@H]2[C@@H](O)C=C[C@H]3[C@H]1C5 [morphine]
analgesic effect against mechanical stimulation in viscera (oesophagus), in comparison to placebo ([1]; oral morphine 30 mg vs placebo): a certain analgesic effect | analgesic effect in muscle versus placebo [2]: significantly more analgesic than placebo | analgesic effect against heat pain stimulation in viscera (oesophagus), in comparison to placebo ([3]; oral morphine 30 mg vs placebo): a certain analgesic effect

COc1ccc2c3c1O[C@H]1C(=O)CC[C@@]4(O)[C@@H](C2)N(C)CC[C@]314 [oxycodone]
analgesic effect against mechanical stimulation in viscera (oesophagus), in comparison to morphine and placebo [1, 5]: significantly better analgesic effect | analgesic effect in muscle versus placebo [2]: significantly more analgesic than placebo | difference in analgesic effect between morphine and oxycodone in muscle [2, 6]: no significant difference between morphine and oxycodone | analgesic effect in the skin versus placebo ([4]; oral solution, morphine 30 mg, oxycodone 15 mg, FIG. 1): significantly more analgesic than placebo | difference in analgesic effect between morphine and oxycodone in the skin [4, 6]: no significant difference between morphine and oxycodone | analgesia against heat pain stimulation in viscera (oesophagus), in comparison to morphine and placebo [3, 5]: significantly greater analgesia

Source: patent US9271974B2, “Use of oxycodone for treating visceral pain” (PURDUE PHARMA L.P., priority 2005, dated 2016)
